Laboratory results: patent EP4603105A1, “PHARMACEUTICAL COMPOSITION CONTAINING CYCLIC COMPOUND HAVING SELECTIVE KRAS INHIBITORY EFFECT AGAINST HRAS AND NRAS” (CHUGAI SEIYAKU KABUSHIKI KAISHA, priority 2022, dated 2024)

What was measured:
[1] = target: GDP-bound KRAS wild-type protein (Homo sapiens, UniProt P01116); assay: Binding to KRAS by surface plasmon resonance (SPR), dissociation constant KD; conditions: 1:1 binding model
Method in brief: (§1)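 Measured at 30°C: SPR with GDP-loaded, E. coli-expressed biotin-Avi RAS captured (~100–300 RU), ascending 75 s compound injections, HBS pH 7.4 with GDP, MgCl2, 4% DMSO. KD from 1:1 fit.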

[2] = target: HRAS wild-type protein (Homo sapiens, UniProt P01112); assay: Binding to HRAS by surface plasmon resonance (SPR), KD and KD ratio to KRAS; conditions: ratio of KD for HRAS wild-type protein to KD for KRAS
HRAS wild-type protein, sequence (P01112 whole entry): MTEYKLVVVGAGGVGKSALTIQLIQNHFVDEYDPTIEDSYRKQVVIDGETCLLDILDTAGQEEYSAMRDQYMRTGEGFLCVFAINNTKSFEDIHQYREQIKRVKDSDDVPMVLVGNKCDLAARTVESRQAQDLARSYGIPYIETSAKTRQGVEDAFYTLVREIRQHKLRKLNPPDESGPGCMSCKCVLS
Method in brief: as §1

[3] = tested on: human lung cancer strain NCI-H441; type: cell-based
Method in brief: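 Signal came from […] measured per well once the reagent was added. Beforehand, cells were cultured at 37°C and 5% carbon dioxide on a compound series serially diluted in dimethyl sulfoxide.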

[4] = target: GDP-bound NRAS wild-type protein (Homo sapiens, UniProt P01111); assay: Binding to NRAS by surface plasmon resonance (SPR), KD and KD ratio to KRAS; conditions: ratio of KD for GDP-bound NRAS wild-type protein to KD for KRAS
GDP-bound NRAS wild-type protein, sequence (P01111 whole entry): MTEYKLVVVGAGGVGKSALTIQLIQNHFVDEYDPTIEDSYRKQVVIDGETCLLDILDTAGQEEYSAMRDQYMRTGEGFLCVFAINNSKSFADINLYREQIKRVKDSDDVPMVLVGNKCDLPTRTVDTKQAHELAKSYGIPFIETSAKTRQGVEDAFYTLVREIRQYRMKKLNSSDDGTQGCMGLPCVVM
Method in brief: as §1

GDP-bound KRAS wild-type protein, sequence (P01116 1-188 isoform P01116-2): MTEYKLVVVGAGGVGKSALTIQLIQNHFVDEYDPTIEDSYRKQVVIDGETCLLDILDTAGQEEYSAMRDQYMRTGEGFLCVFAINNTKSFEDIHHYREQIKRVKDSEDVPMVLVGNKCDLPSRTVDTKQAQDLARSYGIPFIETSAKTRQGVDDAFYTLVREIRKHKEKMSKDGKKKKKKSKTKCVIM

Row | SMILES | Kd [1] [nM] | HRAS /KRAS [2] | IC50 [3] [nM] | NRAS /KRAS [4]
1 | CCO[C@@H]1C[C@H]2C(=O)NC3(CCC3)C(=O)N(C)[C@@H](C(CC)CC)C(=O)N(C)[C@H](C(=O)N(C)C)CC(=O)N(C)[C@H]3CCCC/C=C/c4ccc(cc4)C[C@@H](C(=O)N(C)CC(=O)N[C@@H](CCc4ccc(Cl)c(Cl)c4)C(=O)N2C1)N1CC/C=C\C[C@@H](C1=O)N(C)C(=O)CN(C1CC1)C(=O)[C@H]([C@@H](C)CC)NC3=O [PP2605] | 0.34 | A (a compound having 10 or more and less than 20 is denoted as A) | 8.7 | AA (a compound having 20 or more is denoted as AA)
2 | CCO[C@@H]1C[C@H]2C(=O)NC3(CCC3)C(=O)N(C)[C@@H](C3CCCC3)C(=O)N(C)[C@H](C(=O)N(C)C)CC(=O)N(C)[C@@H](CC3CCCC3)C(=O)N[C@@H]([C@@H](C)CC)C(=O)N(C)CC(=O)N(C)[C@H]3C/C=C\CCN(C3=O)[C@@H](Cc3ccc(C)cc3)C(=O)N(C)CC(=O)N[C@@H](CCc3ccc(C(F)(F)F)c(C4CC4)c3)C(=O)N2C1 [PP2681] | 0.37 | A (a compound having 10 or more and less than 20 is denoted as A) | 29.1 | A (a compound having 10 or more and less than 20 is denoted as A)
3 | CCO[C@@H]1C[C@H]2C(=O)NC3(CCC3)C(=O)N(C)[C@@H](C3CCCC3)C(=O)N(C)[C@H](C(=O)N(C)C)CC(=O)N(C)[C@@H](CC3CCCC3)C(=O)N[C@@H]([C@@H](C)CC)C(=O)N(C)CC(=O)N(C)[C@H]3C/C=C\CCN(C3=O)[C@@H](Cc3ccc(C)cc3)C(=O)N(C)CC(=O)N[C@@H](CCc3ccc(C4CC4)c(Cl)c3)C(=O)N2C1 [PP2684] | 0.43 | A (a compound having 10 or more and less than 20 is denoted as A) | 57.9 | A (a compound having 10 or more and less than 20 is denoted as A)
4 | CCO[C@@H]1C[C@H]2C(=O)NC3(CCC3)C(=O)N(C)[C@@H](C3CCCC3)C(=O)N(C)[C@H](C(=O)N(C)C)CC(=O)N(C)[C@@H](CC3CCCC3)C(=O)N[C@@H]([C@@H](C)CC)C(=O)N(C)CC(=O)N(C)[C@H]3C/C=C\CCN(C3=O)[C@@H](Cc3ccc(C)cc3)C(=O)N(C)CC(=O)N[C@@H](CCc3ccc(CC)c(F)c3)C(=O)N2C1 [PP2686] | 3.3 | A (a compound having 10 or more and less than 20 is denoted as A) | 162 | A (a compound having 10 or more and less than 20 is denoted as A)
5 | CCC[C@H]1C(=O)N[C@@H]([C@@H](C)CC)C(=O)N(C)CC(=O)N(C)[C@H]2C/C=C\CCN(C2=O)[C@@H](Cc2ccc(C)cc2)C(=O)N(C)CC(=O)N[C@@H](CCc2ccc(CC)c(Cl)c2)C(=O)N2C[C@H](OCC)C[C@H]2C(=O)NC2(CC(C)(C)C2)C(=O)N(C)[C@@H](C(CC)CC)C(=O)N(C)[C@H](C(=O)N(C)C)CC(=O)N1C [PP2779] | 3.4 | A (a compound having 10 or more and less than 20 is denoted as A) | 112 | A (a compound having 10 or more and less than 20 is denoted as A)
6 | CCC[C@H]1C(=O)N[C@@H]([C@@H](C)CC)C(=O)N(C)CC(=O)N(C)[C@H]2C/C=C\CCN(C2=O)[C@@H](Cc2ccc(C)cc2)C(=O)N(C)CC(=O)N[C@@H](CCc2cc(F)c(C(F)(F)F)c(F)c2)C(=O)N2C[C@H](OCC)C[C@H]2C(=O)NC2(CC(C)(C)C2)C(=O)N(C)[C@@H](CC2CC2)C(=O)N(C)[C@H](C(=O)N(C)C)CC(=O)N1C [PP2797] | 0.6 | A (a compound having 10 or more and less than 20 is denoted as A) | 52.8 | A (a compound having 10 or more and less than 20 is denoted as A)
7 | CCC[C@H]1C(=O)N[C@@H]([C@@H](C)CC)C(=O)N(C)CC(=O)N(C)[C@H]2C/C=C\CCN(C2=O)[C@@H](Cc2ccc(C)cc2)C(=O)N(C)CC(=O)N[C@@H](CCc2ccc(Cl)c(Cl)c2)C(=O)N2C[C@H](OCC)C[C@H]2C(=O)NC2(CC(C)(C)C2)C(=O)N(C)[C@@H](CC2CC2)C(=O)N(C)[C@H](C(=O)N(C)C)CC(=O)N1C [PP2799] | 1.2 | A (a compound having 10 or more and less than 20 is denoted as A) | 136 | A (a compound having 10 or more and less than 20 is denoted as A)
8 | CCCC[C@H]1C(=O)N[C@@H]([C@@H](C)CC)C(=O)N(C)CC(=O)N(C)[C@H]2C/C=C\CCN(C2=O)[C@@H](Cc2ccc(C)cc2)C(=O)N(C)CC(=O)N[C@@H](CCc2cc(F)c(C(F)(F)F)c(F)c2)C(=O)N2C[C@H](OCC)C[C@H]2C(=O)NC2(CC(C)(C)C2)C(=O)N(C)[C@@H](C2CCCC2)C(=O)N(C)[C@H](C(=O)N(C)C)CC(=O)N1C [PP2800] | 0.056 | A (a compound having 10 or more and less than 20 is denoted as A) | 7.9 | A (a compound having 10 or more and less than 20 is denoted as A)
9 | CC[C@H](C)[C@@H]1NC(=O)[C@H](CC2CC2)N(C)C(=O)C[C@@H](C(=O)N(C)CC)N(C)C(=O)[C@H](C2CCCC2)N(C)C(=O)C2(CC(C)(C)C2)NC(=O)[C@@H]2C[C@@H](F)CN2C(=O)[C@H](CCc2cc(F)c(C(F)(F)F)c(F)c2)NC(=O)CN(C)C(=O)[C@H](Cc2ccc(C)cc2)N2CC/C=C\C[C@@H](C2=O)N(C)C(=O)CN(C)C1=O [PP2802] | 0.034 | A (a compound having 10 or more and less than 20 is denoted as A) | 5.5 | AA (a compound having 20 or more is denoted as AA)
10 | CCC[C@H]1C(=O)N[C@@H]([C@@H](C)CC)C(=O)N(C2CC2)CC(=O)N(C)[C@H]2C/C=C\CCN(C2=O)[C@@H](Cc2ccc(C)cc2)C(=O)N(C)CC(=O)N[C@@H](CCc2ccc(Cl)c(Cl)c2)C(=O)N2C[C@H](OCC)C[C@H]2C(=O)NC2(CC(C)(C)C2)C(=O)N(C)[C@@H](CC2CC2)C(=O)N(C)[C@H](C(=O)N(C)C)CC(=O)N1C [PP2805] | 3.7 | A (a compound having 10 or more and less than 20 is denoted as A) | 83 | A (a compound having 10 or more and less than 20 is denoted as A)
11 | CCO[C@@H]1C[C@H]2C(=O)N(C)C3(CC(C)(C)C3)C(=O)N(C)[C@@H](C(CC)CC)C(=O)N(C)[C@H](C(=O)N(C)C)CC(=O)N(C)[C@@H](COC)C(=O)N[C@@H]([C@@H](C)CC)C(=O)N(C)CC(=O)N(C)[C@H]3C/C=C\CCN(C3=O)[C@@H](Cc3ccc(C)cc3)C(=O)N(C)CC(=O)N[C@@H](CCc3ccc(Cl)c(Cl)c3)C(=O)N2C1 [PP2810] | 0.46 | A (a compound having 10 or more and less than 20 is denoted as A) | 38.1 | AA (a compound having 20 or more is denoted as AA)
12 | CCCO[C@@H]1C[C@H]2C(=O)N(C)C3(CC(C)(C)C3)C(=O)N(C)[C@@H](C(CC)CC)C(=O)N(C)[C@H](C(=O)N(C)C)CC(=O)N(C)[C@@H](COC)C(=O)N[C@@H]([C@@H](C)CC)C(=O)N(C)CC(=O)N(C)[C@H]3C/C=C\CCN(C3=O)[C@@H](Cc3ccc(C)cc3)C(=O)N(C)CC(=O)N[C@@H](CCc3ccc(Cl)c(Cl)c3)C(=O)N2C1 [PP2812] | 0.56 | A (a compound having 10 or more and less than 20 is denoted as A) | 41 | AA (a compound having 20 or more is denoted as AA)
13 | CCC(CC)[C@H]1C(=O)N(C)[C@H](C(=O)N(C)C)CC(=O)N(C)[C@@H](COC)C(=O)N[C@@H]([C@@H](C)CC)C(=O)N(C)CC(=O)N(C)[C@H]2C/C=C\CCN(C2=O)[C@@H](Cc2ccc(C)cc2)C(=O)N(C)CC(=O)N[C@@H](CCc2ccc(Cl)c(Cl)c2)C(=O)N2C[C@H](OC(C)C)C[C@H]2C(=O)N(C)C2(CC(C)(C)C2)C(=O)N1C [PP2814] | 0.37 | A (a compound having 10 or more and less than 20 is denoted as A) | 44.4 | AA (a compound having 20 or more is denoted as AA)
14 | CCC(CC)[C@H]1C(=O)N(C)[C@H](C(=O)N(C)C)CC(=O)N(C)[C@@H](COC)C(=O)N[C@@H]([C@@H](C)CC)C(=O)N(C)CC(=O)N(C)[C@H]2C/C=C\CCN(C2=O)[C@@H](Cc2ccc(C)cc2)C(=O)N(C)CC(=O)N[C@@H](CCc2ccc(Cl)c(Cl)c2)C(=O)N2C[C@H](OC3CCC3)C[C@H]2C(=O)N(C)C2(CC(C)(C)C2)C(=O)N1C [PP2816] | 0.39 | A (a compound having 10 or more and less than 20 is denoted as A) | 22.8 | AA (a compound having 20 or more is denoted as AA)
15 | CCC(CC)[C@H]1C(=O)N(C)[C@H](C(=O)N(C)C)CC(=O)N(C)[C@@H](COC)C(=O)N[C@@H]([C@@H](C)CC)C(=O)N(C)CC(=O)N(C)[C@H]2C/C=C\CCN(C2=O)[C@@H](Cc2ccc(C)cc2)C(=O)N(C)CC(=O)N[C@@H](CCc2ccc(Cl)c(Cl)c2)C(=O)N2CC3(CC3)C[C@H]2C(=O)N(C)C2(CC(C)(C)C2)C(=O)N1C [PP2820] | 0.94 | A (a compound having 10 or more and less than 20 is denoted as A) | 62.4 | AA (a compound having 20 or more is denoted as AA)
